The results in this text go back to ChEMBL document CHEMBL1909046, “DrugMatrix in vitro pharmacology data”.

By IC50 is commonly meant the concentration needed to halve the response being measured. The Ki is the equilibrium dissociation constant of an inhibitor or competing ligand from its target.

Test [1] addresses Sodium-dependent noradrenaline transporter (Homo sapiens, UniProt P23975). Kind of test: DRUGMATRIX: Norepinephrine Transporter radioligand binding (ligand: [125I] RTI-55). Particulars: Not Active = under 50% inhibition at 10 µM; for Ki: read-out: Ki. It is filed as cell membranes, MDCK, Membrane.
Test [2] in a line: DRUGMATRIX: Calcium Channel Type L, Dihydropyridine radioligand binding (ligand: [3H] Nitrendipine). It is filed as cell membranes, Rattus norvegicus, Wistar, Cerebral cortex, Membrane. Particulars: Not Active = under 50% inhibition at 10 µM.
The target of test [3] is T1, C-X-C chemokine receptor type 1 (Homo sapiens, UniProt P25024). Further: in other assays of this panel Not Active means under 50% inhibition at 10 µM.
T1 sequence (P25024 whole entry): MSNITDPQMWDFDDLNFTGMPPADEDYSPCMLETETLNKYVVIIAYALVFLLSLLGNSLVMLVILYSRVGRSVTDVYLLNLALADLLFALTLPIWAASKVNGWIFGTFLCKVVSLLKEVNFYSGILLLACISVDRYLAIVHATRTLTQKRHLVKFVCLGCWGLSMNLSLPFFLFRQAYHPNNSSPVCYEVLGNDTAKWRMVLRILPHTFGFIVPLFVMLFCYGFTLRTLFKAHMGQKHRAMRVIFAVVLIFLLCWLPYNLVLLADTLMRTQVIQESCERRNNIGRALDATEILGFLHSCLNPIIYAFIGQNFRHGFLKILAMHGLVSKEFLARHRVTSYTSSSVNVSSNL

The next test addresses D(3) dopamine receptor (Homo sapiens, UniProt P35462). Kind of test: DRUGMATRIX: Dopamine D3 radioligand binding (ligand: [3H] Spiperone). It is filed as cell membranes, CHO, Membrane.
A short description of test [4]: DRUGMATRIX: GABAA, Flunitrazepam, Central radioligand binding (ligand: [3H] Flunitrazepam). It is filed as cell membranes, Rattus norvegicus, Wistar, Brain, Membrane. Particulars: Not Active = under 50% inhibition at 10 µM.
For the next test, the target named is T2, Estrogen receptor (Homo sapiens, UniProt P03372).
T2 sequence (P03372 whole entry): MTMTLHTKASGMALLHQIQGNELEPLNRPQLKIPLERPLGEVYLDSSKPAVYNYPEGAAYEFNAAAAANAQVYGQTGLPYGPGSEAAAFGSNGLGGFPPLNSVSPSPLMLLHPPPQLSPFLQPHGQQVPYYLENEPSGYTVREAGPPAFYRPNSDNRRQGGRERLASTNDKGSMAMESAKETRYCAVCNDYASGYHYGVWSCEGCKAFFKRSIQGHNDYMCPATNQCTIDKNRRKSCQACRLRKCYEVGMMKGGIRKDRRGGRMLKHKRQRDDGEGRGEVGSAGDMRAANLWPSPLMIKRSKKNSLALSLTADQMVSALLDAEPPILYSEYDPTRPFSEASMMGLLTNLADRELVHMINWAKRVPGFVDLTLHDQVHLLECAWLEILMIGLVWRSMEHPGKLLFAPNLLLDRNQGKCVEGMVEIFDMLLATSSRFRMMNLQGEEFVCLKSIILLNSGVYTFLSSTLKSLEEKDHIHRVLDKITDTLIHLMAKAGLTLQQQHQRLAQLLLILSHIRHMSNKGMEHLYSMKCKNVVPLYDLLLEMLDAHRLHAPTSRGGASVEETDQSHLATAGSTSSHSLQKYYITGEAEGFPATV
Conditions: sf9.

Another test deals with Estrogen receptor beta (Homo sapiens, UniProt Q92731). Particulars: sf9.
Estrogen receptor beta, sequence (Q92731 whole entry): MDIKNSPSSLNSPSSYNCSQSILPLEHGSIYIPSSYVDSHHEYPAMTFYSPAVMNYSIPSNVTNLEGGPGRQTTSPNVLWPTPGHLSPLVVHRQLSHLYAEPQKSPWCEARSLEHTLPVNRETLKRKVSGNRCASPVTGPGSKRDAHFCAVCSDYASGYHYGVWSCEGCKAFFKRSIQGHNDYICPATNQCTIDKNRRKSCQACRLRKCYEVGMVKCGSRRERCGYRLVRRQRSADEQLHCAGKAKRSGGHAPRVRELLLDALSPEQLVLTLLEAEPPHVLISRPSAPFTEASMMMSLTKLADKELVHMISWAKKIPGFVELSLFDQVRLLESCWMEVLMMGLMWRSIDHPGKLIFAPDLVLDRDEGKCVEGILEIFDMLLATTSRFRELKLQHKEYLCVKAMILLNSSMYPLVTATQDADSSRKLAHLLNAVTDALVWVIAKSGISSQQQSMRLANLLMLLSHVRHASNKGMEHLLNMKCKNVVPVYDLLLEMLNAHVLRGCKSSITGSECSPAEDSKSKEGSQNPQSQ

Structures are written as SMILES.

Sodium-dependent noradrenaline transporter, sequence (P23975 whole entry): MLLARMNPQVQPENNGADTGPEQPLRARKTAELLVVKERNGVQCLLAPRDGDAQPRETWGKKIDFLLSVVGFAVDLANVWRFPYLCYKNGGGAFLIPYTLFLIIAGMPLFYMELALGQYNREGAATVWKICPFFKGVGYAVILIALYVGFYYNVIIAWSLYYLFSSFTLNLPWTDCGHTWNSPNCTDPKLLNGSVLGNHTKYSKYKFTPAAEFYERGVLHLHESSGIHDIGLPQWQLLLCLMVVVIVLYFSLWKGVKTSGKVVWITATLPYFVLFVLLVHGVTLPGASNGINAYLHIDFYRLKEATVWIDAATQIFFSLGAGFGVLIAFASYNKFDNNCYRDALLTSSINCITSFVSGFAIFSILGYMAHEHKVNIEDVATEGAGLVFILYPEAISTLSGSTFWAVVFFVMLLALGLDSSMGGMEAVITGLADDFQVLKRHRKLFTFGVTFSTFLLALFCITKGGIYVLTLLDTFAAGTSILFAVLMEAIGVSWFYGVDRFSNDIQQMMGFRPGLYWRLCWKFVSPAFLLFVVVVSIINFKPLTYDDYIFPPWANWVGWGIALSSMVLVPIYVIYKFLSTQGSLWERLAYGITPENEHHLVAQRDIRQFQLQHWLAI
D(3) dopamine receptor, sequence (P35462 whole entry): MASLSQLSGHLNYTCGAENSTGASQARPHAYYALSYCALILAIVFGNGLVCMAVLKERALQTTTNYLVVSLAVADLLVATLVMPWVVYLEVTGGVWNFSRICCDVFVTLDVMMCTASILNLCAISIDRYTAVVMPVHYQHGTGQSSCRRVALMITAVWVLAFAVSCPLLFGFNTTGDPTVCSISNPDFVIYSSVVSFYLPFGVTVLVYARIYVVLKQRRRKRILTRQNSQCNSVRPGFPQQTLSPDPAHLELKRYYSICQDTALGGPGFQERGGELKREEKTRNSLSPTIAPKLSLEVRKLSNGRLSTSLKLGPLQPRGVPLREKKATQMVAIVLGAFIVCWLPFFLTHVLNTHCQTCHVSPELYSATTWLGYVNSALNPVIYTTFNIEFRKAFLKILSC

As for `C[N+](C)(C)CCOP(=O)([O-])OC[C@H](O)CO`, the IC50 result (in test [1] (mdck); in test [2]; in test [3]; at D(3) dopamine receptor (cho); in test [4]; at Estrogen receptor) was “Not Active” throughout. Moreover, the 50% inhibitory concentration (IC50) result on Estrogen receptor beta is on record as “Not Active”. Also, the inhibition constant (Ki) result in test [2] and in test [4] was “Not Active” throughout.
`OC[C@H]1OC2C3[C@@H](CO)OC(O[C@H]4[C@H](O)[C@@H](O)[C@@H](O[C@H]5[C@H](O)[C@@H](O)[C@@H](O[C@H]6[C@H](O)[C@@H](O)[C@@H](O[C@H]7[C@H](O)[C@@H](O)[C@@H](O[C@H]8[C@H](O)[C@@H](O)[C@@H](O[C@H]9[C@H](O)[C@@H](O)C(OC1[C@H](O)[C@H]2O)O[C@@H]9CO)O[C@@H]8CO)O[C@@H]7CO)O[C@@H]6CO)O[C@@H]5CO)O[C@@H]4CO)[C@H](O)[C@H]3O`: the 50% inhibitory concentration (IC50) result (in test [1] (mdck); in test [2]; in test [3]; on D(3) dopamine receptor (cho); in test [4]; against Estrogen receptor) was “Not Active” throughout. The concentration for half-maximal inhibition (IC50) result against Estrogen receptor beta is listed as “Not Active”. Also, the Ki entry in test [2] and in test [4] was “Not Active” in each case.
For the compound `CC(=O)Nc1ccc2c(c1)Cc1ccccc1-2` [2-ACETYLAMINOFLUORENE], the half-maximal inhibitory concentration (IC50) in test [1] (read-out: IC50) was 8590 nM; in test [2], “Not Active”; in test [3], “Not Active”; on D(3) dopamine receptor (cho), “Not Active”; in test [4] it was “Not Active”; against Estrogen receptor it was “Not Active”. In addition, the half-inhibitory concentration (IC50) result against Estrogen receptor beta is “Not Active”. The inhibition constant Ki in test [1] is 8520 nM; in test [2] it was “Not Active”; in test [4] it was “Not Active”.
With `O=C(Nc1ccc(Cl)c(Cl)c1)c1cc(Cl)cc(Cl)c1O` [3,3',4',5-TETRACHLOROSALICYLANILIDE], the 50% inhibitory concentration (IC50) result (in test [1] (mdck); in test [2]; in test [3]; at D(3) dopamine receptor (cho); in test [4]; on Estrogen receptor) was “Not Active” in each case. Moreover, the concentration for half-maximal inhibition (IC50) entry against Estrogen receptor beta is listed as “Not Active”. In addition, the inhibition constant Ki result in test [2] and in test [4] was “Not Active” throughout.
On to `O=C(O)COC(=O)Cc1ccccc1Nc1c(Cl)cccc1Cl` [ACECLOFENAC], for which the IC50 entry (in test [1] (mdck); in test [2]; in test [3]; at D(3) dopamine receptor (cho); in test [4]; on Estrogen receptor) was “Not Active” each time. The IC50 result against Estrogen receptor beta is “Not Active”. The Ki result in test [2] and in test [4] was “Not Active” throughout.
Take `CCN1C[C@]2(COC)[C@H](O)C[C@H](OC)[C@@]34[C@@H]5C[C@@]6(O)[C@H](OC(=O)c7ccccc7)[C@@H]5[C@@](OC(C)=O)([C@@H]([C@H](OC)[C@H]23)[C@@H]14)[C@@H](O)[C@@H]6OC` [ACONITINE]: the half-inhibitory concentration (IC50) entry (in test [1] (mdck); in test [2]; in test [3]; on D(3) dopamine receptor (cho); in test [4]; against Estrogen receptor) was “Not Active” throughout. Moreover, the IC50 entry at Estrogen receptor beta is “Not Active”. The inhibitory constant (Ki) entry in test [2] and in test [4] was “Not Active” throughout.
For the compound `CCO` [ALCOHOL], the concentration for half-maximal inhibition (IC50) result (in test [1] (mdck); in test [2]; in test [3]; on D(3) dopamine receptor (cho); in test [4]; against Estrogen receptor) was “Not Active” each time. The IC50 entry on Estrogen receptor beta was “Not Active”. Further, the Ki result in test [2] and in test [4] was “Not Active” throughout.
Consider `OC[C@H]1O[C@@H]2O[C@H]3[C@H](O)[C@@H](O)[C@@H](O[C@H]4[C@H](O)[C@@H](O)[C@@H](O[C@H]5[C@H](O)[C@@H](O)[C@@H](O[C@H]6[C@H](O)[C@@H](O)[C@@H](O[C@H]7[C@H](O)[C@@H](O)[C@@H](O[C@H]1[C@H](O)[C@H]2O)O[C@@H]7CO)O[C@@H]6CO)O[C@@H]5CO)O[C@@H]4CO)O[C@@H]3CO` [ALFADEX], for which the IC50 result (in test [1] (mdck); in test [2]; in test [3]; at D(3) dopamine receptor (cho); in test [4]; on Estrogen receptor) was “Not Active” in each case. Moreover, the IC50 result against Estrogen receptor beta is listed as “Not Active”. The Ki result in test [2] and in test [4] was “Not Active” each time.
In the case of `Oc1ncnc2[nH]ncc12` [ALLOPURINOL], the IC50 entry (in test [1] (mdck); in test [2]; in test [3]; on D(3) dopamine receptor (cho); in test [4]; on Estrogen receptor) was “Not Active” in each case. In addition, at Estrogen receptor beta, the half-maximal inhibitory concentration (IC50) result was “Not Active”. In addition, the Ki result in test [2] and in test [4] was “Not Active” in each case.
Take `Nc1nc(N)c2nc(CNc3ccc(C(=O)N[C@@H](CCC(=O)O)C(=O)O)cc3)cnc2n1` [AMINOPTERIN]: the concentration for half-maximal inhibition (IC50) result (in test [1] (mdck); in test [2]; in test [3]; at D(3) dopamine receptor (cho); in test [4]; on Estrogen receptor) was “Not Active” each time. Also, the 50% inhibitory concentration (IC50) result against Estrogen receptor beta is recorded as “Not Active”. For the same compound, the Ki result in test [2] and in test [4] was “Not Active” throughout.
For `C[C@@H]1[C@H](O)[C@@H](C)/C=C/C=C/C=C/C=C/C=C/C=C/C=C/[C@H](O[C@@H]2O[C@H](C)[C@@H](O)[C@H](N)[C@@H]2O)C[C@@H]2O[C@](O)(C[C@@H](O)C[C@@H](O)[C@H](O)CC[C@@H](O)C[C@@H](O)CC(=O)O[C@H]1C)C[C@H](O)[C@H]2C(=O)O` [AMPHOTERICIN B], the IC50 entry (in test [1] (mdck); in test [2]; in test [3]; on D(3) dopamine receptor (cho); in test [4]; against Estrogen receptor) was “Not Active” throughout. The IC50 result against Estrogen receptor beta is “Not Active”. The Ki result in test [2] and in test [4] was “Not Active” each time.
For the compound `CN(Cc1cc(Br)cc(Br)c1N)C1CCCCC1` [BROMHEXINE], the IC50 result (in test [1] (mdck); in test [2]; in test [3]; at D(3) dopamine receptor (cho); in test [4]; at Estrogen receptor) was “Not Active” in each case. Also, at Estrogen receptor beta, the concentration for half-maximal inhibition (IC50) result is on record as “Not Active”. Also, the Ki result in test [2] and in test [4] was “Not Active” in each case.
With `CC(N)Cc1c[nH]c2ccc(OCc3cccs3)cc12` (stereo not drawn) [BW-723C86], the half-inhibitory concentration (IC50) in test [1] (read-out: IC50) is 3630 nM; in test [2], “Not Active”; in test [3], “Not Active”; at D(3) dopamine receptor (cho) it was “Not Active”; in test [4], “Not Active”; against Estrogen receptor, “Not Active”. For the same compound, the 50% inhibitory concentration (IC50) result against Estrogen receptor beta is “Not Active”. Moreover, the figures for the Ki in test [1], in test [2] and in test [4] were 3600 nM, “Not Active” and “Not Active”, respectively.
As for `CC12CCC(CC1=O)C2(C)C` (stereo not drawn) [CAMPHOR], the IC50 result (in test [1] (mdck); in test [2]; in test [3]; at D(3) dopamine receptor (cho); in test [4]; on Estrogen receptor) was “Not Active” throughout. Also, on Estrogen receptor beta, the half-maximal inhibitory concentration (IC50) result is on record as “Not Active”. For the same compound, the Ki result in test [2] and in test [4] was “Not Active” in each case.
In the case of `COc1ccccc1OCCNCC(O)COc1cccc2[nH]c3ccccc3c12` (stereo not drawn) [CARVEDILOL], the concentration for half-maximal inhibition (IC50) in test [1] (read-out: IC50) was 538 nM; in test [2], “Not Active”; in test [3], “Not Active”; on D(3) dopamine receptor (read-out: IC50) it was 577 nM; in test [4], “Not Active”; against Estrogen receptor, “Not Active”. The IC50 result against Estrogen receptor beta was “Not Active”. Moreover, the Ki in test [1] is 533 nM; in test [2], “Not Active”; at D(3) dopamine receptor (read-out: Ki), 196 nM; in test [4], “Not Active”.
Consider `Cl.NC[C@H]1CC[C@H](C(=O)Oc2ccc(CCC(=O)O)cc2)CC1` [CETRAXATE HYDROCHLORIDE], for which the IC50 entry (in test [1] (mdck); in test [2]; in test [3]; on D(3) dopamine receptor (cho); in test [4]; against Estrogen receptor) was “Not Active” each time. The IC50 result against Estrogen receptor beta is on record as “Not Active”. Further, the Ki entry in test [2] and in test [4] was “Not Active” each time.
